# Publication PMC5115179 (Pharmacology Research & Perspectives, 2016)
# Read-outs that look alike come from different tables or passages of the source.
# Experiments:
# in vivo = format: in vivo; conditions: mouse; for half-life / Kp / AUC / CL/F / Cmax: both sexes, ip; for Kp: C57/B6, brain/serum, read-out: Brain to sera AUC ratio
# Description: In pharmacokinetic studies, mice were not randomized to groups but instead assigned to treatment and time points such that there was no gender of weight bias. Studies were initiated in the morning and following treatment mice were euthanized by CO2 asphyxiation and cervical dislocation at predetermined time points (0.25, 0.5, 1, 2, 4, 8, 12, and 24 h) (n = 3–4 animals per time point). Blood (via cardiac puncture), brain, liver, and kidney were rapidly collected, tissues were snap‐frozen in liquid nitrogen, and stored at −80°C prior to further analysis. Sera (20–100 μL) was obtained by low‐speed centrifugation at 2000 × g for 10 min at 6°C. Tissues were suspended in phosphate‐buffered saline (PBS, 1:5, w/v) and homogenized via mechanical homogenization before preparation for LC‐MS/MS analysis.
# Samples (3 μL) were injected onto a Kinetex PFP (50 × 2.1 mm, 1.7 μm particle size) UPLC column and eluted with a binary gradient consisting of water with 0.1% formic acid (mobile phase A) and methanol with 0.1% formic acid (mobile phase B). Initially, 5% mobile phase B was held for 0.4 min at a flow rate of 0.3 mL/min, then increased linearly to 85% over 2.6 min. This composition was held constant for 0.5 min then returned to initial conditions within 6 sec and equilibrated for an additional 1.8 min. Eluent was directed to waste for the initial 0.4 min then to an ABI Sciex 6500 Qtrap tandem mass spectrometer. […] Where necessary, samples were diluted in blank matrices for analysis. Methods were developed using the criteria presented in the FDA bioanalytical guidance document (www.fda.gov, 2013).
# Pharmacokinetic outcomes were obtained via standard noncompartmental methods using Kinetica (version 5.1, Thermo Fisher Scientific, Waltham, MA). The maximum concentration (C max) was obtained directly from the concentration–time profiles. Area under the concentration–time curve (AUC) from time zero to the last collected time point was determined using the trapezoidal method with linear up/log down interpolation. For sera and urine, data above the limit of detection but below the LLOQ were computed as LLOQ/2 (7 nmol/L, 7.5 μg/mL, respectively) to allow for the recovery of the terminal half‐life as reported previously (Beal 2001). To obtain estimates of variability around the mean of AUC and C max, the method of Bailer–Satterwaithe was employed due to the destructive sampling approach (Nedelman et al. 1995). Furthermore, as a result of the destructive sampling approach outcomes for half‐life, apparent volume of distribution and apparent clearance could not be reported with a term for uncertainty.
# rat [1] = tested on: rat; parameters: method as in Pedraza et al., 2009; conditions: 10 mg/kg i.p., ref Pedraza et al., 2009; cited from earlier work
# rat [2] = tested on: rat; parameters: method as in Nava et al., 2001; conditions: dose n.s., i.p., ref Nava et al., 2001; cited from earlier work
# mouse = tested on: mouse; parameters: method as in Martellotta et al., 1998; conditions: 12.5 mg/kg i.p., ref Martellotta et al., 1998; cited from earlier work
# rat [3] = tested on: rat; parameters: method as in Colombo et al., 1995; conditions: rat, 12.5, 25, 50 mg/kg i.p.; ref Colombo et al., 1995; cited from earlier work
# [4] = 100 mg/kg i.p., tissue density assumed equal to water
# [5] = 300 mg/kg i.p., tissue density assumed equal to water
# [6] = 500 mg/kg i.p., tissue density assumed equal to water
smiles,measurement,setting,value
"O=C(O)/C=C1\CCCc2ccccc2C1O (centres unmarked) [NCS‐382, 6,7,8,9‐tetrahydro‐5‐hydroxy‐5H‐benzo‐cyclohept‐6‐ylideneacetic acid]",half-life,"in vivo; C57/B6, brain, 100 mg/kg i.p., read-out: Brain t 1/2 (converted)",58 min
same,half-life,"in vivo; C57/B6, brain, 300 mg/kg i.p., read-out: Brain t 1/2 (converted)",53 min
same,half-life,"in vivo; C57/B6, brain, 500 mg/kg i.p., read-out: Brain t 1/2 (converted)",45.7 min
same,Kp,in vivo; 100 mg/kg i.p.,1.2
same,Kp,in vivo; 300 mg/kg i.p.,0.72
same,Kp,in vivo; 500 mg/kg i.p.,1.8
same,half-life,"in vivo; C57/B6, kidney, 100 mg/kg i.p., read-out: Kidney t 1/2 (converted)",18.5 min
same,AUC,"in vivo; C57/B6, serum, 100 mg/kg i.p.",119 ± 38 µM·h
same,CL/F,"in vivo; C57/B6, serum, 100 mg/kg i.p.",63.3 mL/min/kg
same,Cmax,"in vivo; C57/B6, serum, 100 mg/kg i.p.",241 ± 106 µM
same,half-life,"in vivo; C57/B6, serum, 100 mg/kg i.p., read-out: Serum t 1/2 (converted)",14.6 min
same,AUC,"in vivo; C57/B6, serum, 300 mg/kg i.p.",436 ± 42 µM·h
same,CL/F,"in vivo; C57/B6, serum, 300 mg/kg i.p.",52.5 mL/min/kg
same,Cmax,"in vivo; C57/B6, serum, 300 mg/kg i.p.",374 ± 49 µM
same,half-life,"in vivo; C57/B6, serum, 300 mg/kg i.p., read-out: Serum t 1/2 (converted)",28.1 min
same,AUC,"in vivo; C57/B6, serum, 500 mg/kg i.p.",717 ± 83 µM·h
same,CL/F,"in vivo; C57/B6, serum, 500 mg/kg i.p.",53.2 mL/min/kg
same,Cmax,"in vivo; C57/B6, serum, 500 mg/kg i.p.",451 ± 49 µM
same,half-life,"in vivo; C57/B6, serum, 500 mg/kg i.p., read-out: Serum t 1/2 (converted)",41 min
same,Serum V/F,in vivo; 100 mg/kg i.p.,2.62 L/kg
same,time after administration up to which detectable in sera,in vivo; 100 mg/kg i.p.,up to 4 h
same,time after administration up to which quantifiable in brain,in vivo; 100 mg/kg i.p.,up to 8 h
same,time after administration up to which quantifiable in kidney,in vivo; 100 mg/kg i.p.,up to 4 h
same,time after administration up to which quantifiable in liver,in vivo; 100 mg/kg i.p.,up to 2 h
same,time after administration up to which quantifiable in sera,in vivo; 100 mg/kg i.p.,up to 2 h
same,Brain AUC,in vivo; [4],139 ± 60 µM·h
same,Brain Cmax,in vivo; [4],60 ± 9.5 µM
same,Kidney AUC,in vivo; [4],24.5 ± 5.3 µM·h
same,Kidney Cmax,in vivo; [4],23.6 ± 3.0 µM
same,Liver AUC,in vivo; [4],1150 ± 595 µM·h
same,Liver Cmax,in vivo; [4],1695 ± 2030 µM
same,Serum V/F,in vivo; 300 mg/kg i.p.,2.93 L/kg
same,Brain AUC,in vivo; [5],313 ± 33 µM·h
same,Brain Cmax,in vivo; [5],141 ± 45 µM
same,Serum V/F,in vivo; 500 mg/kg i.p.,4.25 L/kg
same,Brain AUC,in vivo; [6],1280 ± 175 µM·h
same,Brain Cmax,in vivo; [6],530 ± 70 µM
same,neurological damage and working-memory impairment induced by low-dose GHB,rat [1],NCS-382 prevents both neurological damage and working- memory impairment induced by low-dose GHB.
same,GHB-induced decrease of hippocampal acetylcholine release,rat [2],"GHB-induced ↓ of hippocampal acetylcholine release is mediated by GABAB receptors, based on ineffective blocking by NCS-382."
same,abuse potential of GHB,mouse,"GHB was shown to have abuse potential, which was blocked by NCS-382."
same,discriminative stimulus effects of GHB,rat [3],Blockade of the discriminative stimulus effects of gamma-hydroxybutyric acid (GHB) by the GHB receptor antagonist NCS-382.
